Measured values as given in ChEMBL document CHEMBL6121008, “New series of 3-pyridyl-1,3-thiazoles: In vitro and in vivo anti-Trypanosomatidae profile, in vitro and in silico mechanism of action approach” (Eur J Med Chem, 2025).

Legend:
[1] = Selectivity index, ratio of CC50 for mouse RAW264.7 cells to IC50 for antiparasitic activity against Leishmania infantum MHOM/MA/67/ITMAP-263 promastigote expressing Escherichia coli beta-galactosidase; format: toxicity; conditions: read-out: Selectivity Index
Leishmania amazonensis [2] = assay: (§1) Antiparasitic activity against Leishmania amazonensis WHOM/00 LTB 0016 promastigote expressing Escherichia coli beta-galactosidase assessed as reduction in parasitic growth using CPRG as substrate preincubated with compound for 72 hrs followed by substrate addition and measured after 10 mins by Spectrophotometric analysis; format: functional, organism-based
[3] = Cytotoxicity against mouse RAW264.7 cells assessed as inhibition of cell viability incubated for 48 hrs by MTT assay; format: toxicity, cell-based
[4] = Selectivity index, ratio of CC50 for mouse RAW264.7 cells to IC50 for antiparasitic activity against Leishmania amazonensis amastigote expressing Escherichia coli beta-galactosidase infected in mouse RAW264.7 cells; format: toxicity; conditions: read-out: Selectivity Index
[5] = Selectivity index, ratio of CC50 for mouse RAW264.7 cells to IC50 for antiparasitic activity against Leishmania infantum amastigote expressing Escherichia coli beta-galactosidase infected in mouse RAW264.7 cells; format: toxicity; conditions: read-out: Selectivity Index
Leishmania amazonensis [6] = assay: as §1, with “amastigote” for “WHOM/00 LTB 0016 promastigote”, “beta-galactosidase infected in mouse RAW264.7 cells” for “beta-galactosidase”, “24” for “72”, “2 to 6 hrs” for “10 mins”; format: functional, organism-based
[7] = Cytotoxicity against mouse L929 cells assessed as inhibition of cell viability incubated for 96 hrs by MTT assay; format: toxicity, cell-based
[8] = Selectivity index, ratio of CC50 for mouse L929 cells to IC50 for antiparasitic activity against trypomastigote and amastigote form of Trypanosoma cruzi Tulahuen expressing Escherichia coli beta-galactosidase infected in mouse L929 cells; format: toxicity; conditions: read-out: Selectivity Index
[9] = Selectivity index, ratio of CC50 for mouse RAW264.7 cells to IC50 for antiparasitic activity against Leishmania amazonensis WHOM/00 LTB 0016 promastigote expressing Escherichia coli beta-galactosidase; format: toxicity; conditions: read-out: Selectivity Index
Trypanosoma cruzi [10] = assay: (§2) Antiparasitic activity against amastigote form of Trypanosoma cruzi Tulahuen expressing Escherichia coli beta-galactosidase infected in mouse L929 cells assessed as reduction in parasitic growth using CPRG as substrate pretreated with compound for 96 hrs followed by substrate addition and measured after 16 to 20 hrs by Spectrophotometric analysis; format: functional, organism-based
Leishmania infantum [11] = assay: as §1, with “infantum MHOM/MA/67/ITMAP-263” for “amazonensis WHOM/00 LTB 0016”; format: functional, organism-based
Trypanosoma cruzi [12] = assay: as §2, with “trypomastigote” for “amastigote”; format: functional, organism-based
Leishmania infantum [13] = assay: Antiparasitic activity against Leishmania infantum amastigote expressing Escherichia coli beta-galactosidase infected in mouse RAW264.7 cells assessed as reduction in parasitic growth using CPRG as substrate preincubated with compound for 24 hrs followed by substrate addition and measured after 2 to 6 hrs by Spectrophotometric analysis; format: functional, organism-based
Trypanosoma cruzi [14] = assay: Antiparasitic activity against trypomastigote form of Trypanosoma cruzi Y assessed as appearance of twisted bodies by Electron micrographic analysis; format: functional, organism-based
[15] = Leishmania amazonensis, WHOM/00 LTB 0016, read-out: IC50
[16] = Leishmania amazonensis, RAW264.7, read-out: IC50
[17] = Leishmania infantum, MHOM/MA/67/ITMAP-263, read-out: IC50
[18] = Leishmania infantum, RAW264.7, read-out: IC50

Row | IC50 (Trypanosoma cruzi [10]) | IC50 (Trypanosoma cruzi [12]) | SMILES | selectivity ratio [1] | IC50 (Leishmania amazonensis [2]; [15]) | CC50 at 48 h [3] | selectivity ratio [4] | selectivity ratio [5] | IC50 (Leishmania amazonensis [6]; [16]) | CC50 at 96 h [7] | selectivity ratio [8] | selectivity ratio [9] | IC50 (Leishmania infantum [11]; [17]) | IC50 (Leishmania infantum [13]; [18]) | IC50 (Leishmania amazonensis [6]; raw264.7) | IC50 (Leishmania infantum [13]; raw264.7) | Activity (Trypanosoma cruzi [14]) | IC50 (Leishmania infantum [11]) | IC50 (Leishmania amazonensis [2])
1 | 2.9 µM | 2.9 µM | C/C(=N\N=c1\scc(-c2ccc([N+](=O)[O-])cc2)n1-c1ccccc1)c1cccnc1 | 0.2 | 18.5 µM | 22.1 µM | 2.9 | 2.4 | 7.7 µM | 25.8 µM | 8.9 | 1.2 | 118 µM | 9.1 µM | – | – | – | – | –
2 | 2.5 µM | 2.5 µM | C/C(=N\N=c1\scc(-c2ccc([N+](=O)[O-])cc2)n1C)c1cccnc1 | 0.2 | 168 µM | 41.2 µM | – | – | – | 88.6 µM | 35.4 | 0.2 | 200 µM | – | Not_active | Not_active | – | – | –
3 | 3.4 µM | 3.4 µM | C/C(=N\N=c1\scc(-c2ccc(C)cc2)n1-c1ccccc1)c1cccnc1 | 1.3 | 4.4 µM | 18.7 µM | 2.6 | 1.2 | 7.3 µM | 7.3 µM | 2.1 | 4.2 | 14.8 µM | 16.1 µM | – | – | – | – | –
4 | 2 µM | 2 µM | COc1ccc(-c2cs/c(=N/N=C(\C)c3cccnc3)n2C)cc1 | 0.7 | 38.7 µM | 14.7 µM | 1 | 1.2 | 14.8 µM | 6.2 µM | 3.1 | 0.4 | 20.1 µM | 12.4 µM | – | – | – | – | –
5 | 3.9 µM | 3.9 µM | C/C(=N\N=c1/[nH]c(-c2ccc(C)cc2)cs1)c1cccnc1 | – | > 324 µM | 25 µM | 0.8 | – | 33.1 µM | 293 µM | 75.1 | < 0.1 | – | – | – | Not_active | Dose-dependent-effect | Not_active | –
6 | – | – | CNC(=S)N/N=C(\C)c1cccnc1 | – | 339 µM | 148 µM | 0.8 | – | 183 µM | – | – | 0.4 | – | – | – | Not_active | – | Not_active | –
7 | – | – | C[C@@H]1[C@H](O)[C@@H](C)/C=C/C=C/C=C/C=C/C=C/C=C/C=C/[C@H](O[C@@H]2O[C@H](C)[C@@H](O)[C@H](N)[C@@H]2O)C[C@@H]2O[C@](O)(C[C@@H](O)C[C@@H](O)[C@H](O)CC[C@@H](O)C[C@@H](O)CC(=O)O[C@H]1C)C[C@H](O)[C@H]2C(=O)O [AMPHOTERICIN B] | 17.5 | 0.1 µM | 3.5 µM | 87.5 | 58.3 | 0.04 µM | – | – | 35 | 0.2 µM | 0.06 µM | – | – | – | – | –
8 | < 0.2 µM | < 0.2 µM | COc1ccc(-c2cs/c(=N/N=C(\C)c3cccnc3)n2-c2ccccc2)cc1 | 1.3 | 5.2 µM | 22 µM | 3.7 | 2.3 | 6 µM | 5.2 µM | > 26 | 4.2 | 16.7 µM | 9.5 µM | – | – | – | – | –
9 | 2.9 µM | 2.9 µM | C/C(=N\N=c1\scc(-c2cccc([N+](=O)[O-])c2)n1-c1ccccc1)c1cccnc1 | > 10.3 | 6.5 µM | > 240 µM | > 25.6 | > 20.8 | 9.4 µM | 18.3 µM | 6.3 | > 37 | 23.3 µM | 11.5 µM | – | – | – | – | –
10 | 3.7 µM | 3.7 µM | C/C(=N\N=c1\scc(-c2ccc(F)cc2)n1C)c1cccnc1 | 0.7 | 32.7 µM | 15 µM | 0.9 | 1.2 | 17.4 µM | 15.6 µM | 4.2 | 0.5 | 21.1 µM | 12.5 µM | – | – | – | – | –
11 | 5.7 µM | 5.7 µM | C/C(=N\N=c1\scc(-c2ccccc2)n1-c1ccccc1)c1cccnc1 | 0.9 | 15.4 µM | 29.4 µM | 2.2 | 3.3 | 13.5 µM | 11.6 µM | 2 | 1.9 | 31 µM | 8.9 µM | – | – | – | – | –
12 | 59.4 µM | 59.4 µM | C/C(=N\N=c1/[nH]c(-c2ccc([N+](=O)[O-])cc2)cs1)c1cccnc1 | – | – | 63.6 µM | 0.2 | 1.4 | 295 µM | > 295 µM | > 5 | – | – | 45.6 µM | – | – | – | Not_active | Not_active
13 | 3.8 µM | 3.8 µM | C/C(=N\N=c1/[nH]c(-c2ccc(F)cc2)cs1)c1cccnc1 | – | – | 52.3 µM | 0.6 | – | 44.7 µM | > 320 µM | > 84.2 | – | – | – | – | Not_active | – | Not_active | Not_active
14 | 7.5 µM | 7.5 µM | C/C(=N\N=c1\scc(-c2ccc(F)cc2)n1-c1ccccc1)c1cccnc1 | 1.4 | 7.2 µM | 41.2 µM | 6.1 | 3.8 | 6.7 µM | 14.4 µM | 1.9 | 5.7 | 29.9 µM | 10.8 µM | – | – | – | – | –
15 | 1 µM | 1 µM | C/C(=N\N=c1\scc(-c2cccc([N+](=O)[O-])c2)n1C)c1cccnc1 | – | – | 17.5 µM | – | 0.5 | – | 13.3 µM | 13.3 | – | – | 33.3 µM | Not_active | – | – | Not_active | Not_active
16 | 4.9 µM | 4.9 µM | C/C(=N\N=c1\scc(-c2ccc(C)cc2)n1C)c1cccnc1 | 0.7 | 75.5 µM | 36.2 µM | 1.2 | 2 | 31 µM | 23 µM | 4.7 | 0.5 | 53.7 µM | 18 µM | – | – | – | – | –
17 | – | – | C/C(=N\NC(N)=S)c1cccnc1 | – | – | 213 µM | 0.8 | 1.3 | 275 µM | – | – | – | – | 163 µM | – | – | – | Not_active | Not_active
18 | – | – | CCCCCCCCCCCCCCCCOP(=O)([O-])OCC[N+](C)(C)C [MILTEFOSINE] | 6.8 | – | – | 13.1 | 12.7 | 1.7 µM | – | – | 6.8 | 3.2 µM | 1.7 µM | – | – | – | – | –
19 | – | – | C/C(=N\NC(=S)Nc1ccccc1)c1cccnc1 | 4.4 | 7 µM | – | – | 4.5 | – | – | – | 13.7 | 21.8 µM | 21.1 µM | – | – | – | – | –
